Assay results from paper PMC4844702, “Selective inhibition of the kinase DYRK1A by targeting its folding process” (Nature Communications, 2016).

Key:
Test in all cases: Kinase panel (Carna)
Assay type in all cases: biochemical
NDR1 = biological target: T1, NDR1 (Homo sapiens, UniProt Q15208)
T1 construct: purchased Carna Biosciences
Source text: (§1) Detailed information on the assay conditions is available on the website of Carna Biosciences (http://www.carnabio.com).

MET = biological target: T2, MET (Homo sapiens, UniProt P08581)
T2 construct: purchased Carna Biosciences
Source text: as §1

PKN1 = biological target: T3, PKN1 (Homo sapiens, UniProt Q16512)
T3 construct: purchased Carna Biosciences

PKCι = biological target: T4, PKCι (Homo sapiens, UniProt P41743)
T4 construct: purchased Carna Biosciences
Source text: as §1

WNK3 = biological target: T5, WNK3 (Homo sapiens, UniProt Q9BYP7)
T5 construct: purchased Carna Biosciences
Source text: as §1

JNK3 = biological target: T6, JNK3 (Homo sapiens, UniProt P53779)
T6 construct: purchased Carna Biosciences
T6 sequence (P53779 whole entry): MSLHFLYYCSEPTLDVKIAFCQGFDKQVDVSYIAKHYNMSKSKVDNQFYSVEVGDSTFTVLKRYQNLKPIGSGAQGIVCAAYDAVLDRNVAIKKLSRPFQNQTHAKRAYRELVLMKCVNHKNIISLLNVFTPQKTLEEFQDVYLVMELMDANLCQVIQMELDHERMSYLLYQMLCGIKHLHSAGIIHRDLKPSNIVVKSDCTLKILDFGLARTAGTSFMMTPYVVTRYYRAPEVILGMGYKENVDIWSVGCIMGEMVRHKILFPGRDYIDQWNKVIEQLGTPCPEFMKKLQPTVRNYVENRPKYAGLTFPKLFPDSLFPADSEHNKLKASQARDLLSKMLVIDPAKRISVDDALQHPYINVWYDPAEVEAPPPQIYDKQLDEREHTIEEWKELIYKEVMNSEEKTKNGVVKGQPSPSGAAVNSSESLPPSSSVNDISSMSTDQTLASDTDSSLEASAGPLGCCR

EPHB1 = biological target: T7, EPHB1 (Homo sapiens, UniProt P54762)
T7 construct: purchased Carna Biosciences
Source text: as §1

EPHA8 = biological target: T8, EPHA8 (Homo sapiens, UniProt P29322)
T8 construct: purchased Carna Biosciences
Source text: as §1

SLK = biological target: T9, SLK (Homo sapiens, UniProt Q9H2G2)
T9 construct: purchased Carna Biosciences
T9 sequence (Q9H2G2 whole entry): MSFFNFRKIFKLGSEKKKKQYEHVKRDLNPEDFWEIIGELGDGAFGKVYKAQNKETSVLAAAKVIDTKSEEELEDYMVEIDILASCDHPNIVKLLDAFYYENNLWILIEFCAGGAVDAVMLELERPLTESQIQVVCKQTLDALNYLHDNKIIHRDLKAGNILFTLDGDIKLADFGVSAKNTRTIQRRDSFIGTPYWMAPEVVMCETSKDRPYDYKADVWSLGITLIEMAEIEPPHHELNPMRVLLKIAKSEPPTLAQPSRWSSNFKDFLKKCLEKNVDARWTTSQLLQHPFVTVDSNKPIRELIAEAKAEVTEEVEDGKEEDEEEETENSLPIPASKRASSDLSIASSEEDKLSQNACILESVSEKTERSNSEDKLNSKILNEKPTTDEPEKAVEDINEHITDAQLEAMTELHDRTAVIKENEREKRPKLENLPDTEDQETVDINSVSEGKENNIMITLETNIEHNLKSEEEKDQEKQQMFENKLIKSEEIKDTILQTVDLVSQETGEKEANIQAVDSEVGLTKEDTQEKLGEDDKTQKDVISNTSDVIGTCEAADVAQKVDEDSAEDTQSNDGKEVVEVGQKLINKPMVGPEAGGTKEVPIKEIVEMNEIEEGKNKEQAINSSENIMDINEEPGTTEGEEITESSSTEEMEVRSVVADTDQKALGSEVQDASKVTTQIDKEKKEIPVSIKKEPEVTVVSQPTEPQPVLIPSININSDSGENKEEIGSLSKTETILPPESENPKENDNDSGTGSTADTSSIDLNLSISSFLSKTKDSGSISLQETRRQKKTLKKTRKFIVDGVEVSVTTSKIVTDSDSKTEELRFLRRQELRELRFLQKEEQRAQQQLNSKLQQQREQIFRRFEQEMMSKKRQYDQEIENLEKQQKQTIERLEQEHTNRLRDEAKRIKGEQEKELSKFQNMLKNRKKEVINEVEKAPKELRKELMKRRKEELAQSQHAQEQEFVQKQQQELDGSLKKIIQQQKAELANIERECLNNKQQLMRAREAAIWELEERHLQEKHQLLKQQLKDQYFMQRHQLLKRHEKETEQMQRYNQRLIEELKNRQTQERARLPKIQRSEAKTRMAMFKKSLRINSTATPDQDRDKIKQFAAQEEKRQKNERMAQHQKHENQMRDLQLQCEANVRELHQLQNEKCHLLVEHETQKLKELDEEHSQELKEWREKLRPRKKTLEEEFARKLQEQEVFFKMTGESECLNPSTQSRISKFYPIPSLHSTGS
Source text: as §1

MAPKAPK2 = biological target: T10, MAPKAPK2 (Homo sapiens, UniProt P49137)
T10 construct: purchased Carna Biosciences

FGFR2 = biological target: T11, FGFR2 (Homo sapiens, UniProt P21802)
T11 construct: purchased Carna Biosciences

PKCβ1 = biological target: T12, PKCβ1 (Homo sapiens, UniProt P05771)
T12 construct: purchased Carna Biosciences
Source text: as §1

PIM2 = biological target: T13, PIM2 (Homo sapiens, UniProt Q9P1W9)
T13 construct: purchased Carna Biosciences
T13 sequence (Q9P1W9 whole entry): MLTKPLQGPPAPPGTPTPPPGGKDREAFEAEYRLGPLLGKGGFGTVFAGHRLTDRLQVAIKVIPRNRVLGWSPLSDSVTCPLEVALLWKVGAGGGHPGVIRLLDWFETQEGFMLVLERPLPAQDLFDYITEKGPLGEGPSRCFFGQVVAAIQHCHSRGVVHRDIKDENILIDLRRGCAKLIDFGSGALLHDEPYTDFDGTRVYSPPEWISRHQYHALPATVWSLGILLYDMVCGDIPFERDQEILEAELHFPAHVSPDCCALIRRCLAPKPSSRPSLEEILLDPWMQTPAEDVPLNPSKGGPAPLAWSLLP
Source text: as §1

AurA/TPX2 = biological target: T14, AurA/TPX2 (Homo sapiens, UniProt O14965)
T14 construct: purchased Carna Biosciences
Source text: as §1

CaMK2α = biological target: T15, CaMK2α (Homo sapiens, UniProt Q9UQM7)
T15 construct: purchased Carna Biosciences
Source text: as §1

Erk5 = biological target: T16, Erk5 (Homo sapiens, UniProt Q13164)
T16 construct: purchased Carna Biosciences

LYNa = biological target: T17, LYNa (Homo sapiens, UniProt P07948)
T17 construct: purchased Carna Biosciences
T17 sequence (P07948 whole entry): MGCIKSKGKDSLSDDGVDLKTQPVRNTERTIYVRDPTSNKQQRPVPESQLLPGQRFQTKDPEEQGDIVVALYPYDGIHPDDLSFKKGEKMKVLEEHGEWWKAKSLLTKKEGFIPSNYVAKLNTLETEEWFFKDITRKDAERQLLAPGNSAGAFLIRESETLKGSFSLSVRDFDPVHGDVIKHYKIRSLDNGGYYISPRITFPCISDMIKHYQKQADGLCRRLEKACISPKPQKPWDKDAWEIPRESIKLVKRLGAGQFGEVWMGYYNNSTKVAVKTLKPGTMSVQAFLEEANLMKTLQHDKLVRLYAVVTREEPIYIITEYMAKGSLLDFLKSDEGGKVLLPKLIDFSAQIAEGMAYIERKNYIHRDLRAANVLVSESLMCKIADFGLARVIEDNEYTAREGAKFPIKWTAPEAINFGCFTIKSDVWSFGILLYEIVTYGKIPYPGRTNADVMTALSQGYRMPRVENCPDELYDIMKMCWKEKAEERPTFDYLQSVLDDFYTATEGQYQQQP
Source text: as §1

PAK4 = biological target: T18, PAK4 (Homo sapiens, UniProt O96013)
T18 construct: purchased Carna Biosciences
Source text: as §1

NEK7 = biological target: T19, NEK7 (Homo sapiens, UniProt Q8TDX7)
T19 construct: purchased Carna Biosciences

BRSK1 = biological target: T20, BRSK1 (Homo sapiens, UniProt Q8TDC3)
T20 construct: purchased Carna Biosciences
Source text: as §1

PKCθ = biological target: T21, PKCθ (Homo sapiens, UniProt Q04759)
T21 construct: purchased Carna Biosciences
Source text: as §1

AKT1 = biological target: T22, AKT1 (Homo sapiens, UniProt P31749)
T22 construct: purchased Carna Biosciences
Source text: as §1

RAF1_Cascade = biological target: T23, RAF1_Cascade (Homo sapiens, UniProt P04049)
T23 construct: purchased Carna Biosciences

TBK1 = biological target: T24, TBK1 (Homo sapiens, UniProt Q9UHD2)
T24 construct: purchased Carna Biosciences
Source text: as §1

MAP2K3_Cascade = biological target: T25, MAP2K3_Cascade (Homo sapiens, UniProt P46734)
T25 construct: purchased Carna Biosciences

COT_Cascade = biological target: T26, COT_Cascade (Homo sapiens, UniProt P41279)
T26 construct: purchased Carna Biosciences

FLT4 = biological target: T27, FLT4 (Homo sapiens, UniProt P35916)
T27 construct: purchased Carna Biosciences
T27 sequence (P35916 25-1363): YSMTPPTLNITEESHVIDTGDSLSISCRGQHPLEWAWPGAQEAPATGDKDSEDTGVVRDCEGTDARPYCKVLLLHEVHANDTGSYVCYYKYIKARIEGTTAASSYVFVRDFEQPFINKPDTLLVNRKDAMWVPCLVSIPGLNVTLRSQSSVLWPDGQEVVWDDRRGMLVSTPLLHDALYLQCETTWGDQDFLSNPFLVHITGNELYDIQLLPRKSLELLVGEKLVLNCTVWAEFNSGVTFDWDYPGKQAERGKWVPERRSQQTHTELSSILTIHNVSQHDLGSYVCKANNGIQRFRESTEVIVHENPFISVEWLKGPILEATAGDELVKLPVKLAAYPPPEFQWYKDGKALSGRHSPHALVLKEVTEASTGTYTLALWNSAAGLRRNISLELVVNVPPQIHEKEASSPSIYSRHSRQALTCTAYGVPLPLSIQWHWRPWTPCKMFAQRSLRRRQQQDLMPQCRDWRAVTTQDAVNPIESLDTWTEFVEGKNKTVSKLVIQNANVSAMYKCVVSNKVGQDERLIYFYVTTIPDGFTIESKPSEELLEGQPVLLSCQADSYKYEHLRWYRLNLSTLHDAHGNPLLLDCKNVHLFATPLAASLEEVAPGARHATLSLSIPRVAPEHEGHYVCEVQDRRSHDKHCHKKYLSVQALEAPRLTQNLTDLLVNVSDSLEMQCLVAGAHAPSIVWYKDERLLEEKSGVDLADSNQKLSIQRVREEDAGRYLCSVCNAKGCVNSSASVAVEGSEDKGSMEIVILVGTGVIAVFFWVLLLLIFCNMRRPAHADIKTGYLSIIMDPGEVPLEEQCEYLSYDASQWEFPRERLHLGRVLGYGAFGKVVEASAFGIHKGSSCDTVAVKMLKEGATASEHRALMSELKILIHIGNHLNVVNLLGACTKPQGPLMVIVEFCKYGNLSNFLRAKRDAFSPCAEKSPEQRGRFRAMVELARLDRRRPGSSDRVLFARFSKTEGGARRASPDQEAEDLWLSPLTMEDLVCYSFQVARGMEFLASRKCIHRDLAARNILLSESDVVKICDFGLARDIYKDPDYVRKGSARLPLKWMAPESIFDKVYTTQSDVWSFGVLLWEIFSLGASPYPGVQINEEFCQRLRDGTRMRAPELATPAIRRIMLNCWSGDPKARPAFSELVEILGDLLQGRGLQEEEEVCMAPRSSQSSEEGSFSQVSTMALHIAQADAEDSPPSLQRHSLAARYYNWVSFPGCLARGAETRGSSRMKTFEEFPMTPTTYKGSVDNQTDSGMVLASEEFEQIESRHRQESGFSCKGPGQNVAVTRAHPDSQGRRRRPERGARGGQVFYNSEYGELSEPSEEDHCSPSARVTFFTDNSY
Source text: as §1

PKD2 = biological target: T28, PKD2 (Homo sapiens, UniProt Q9BZL6)
T28 construct: purchased Carna Biosciences
Source text: as §1

MAP3K3_Cascade = biological target: T29, MAP3K3_Cascade (Homo sapiens, UniProt Q99759)
T29 construct: purchased Carna Biosciences
Source text: as §1

ITK = biological target: T30, ITK (Homo sapiens, UniProt Q08881)
T30 construct: purchased Carna Biosciences
Source text: as §1

JAK3 = biological target: T31, JAK3 (Homo sapiens, UniProt P52333)
T31 construct: purchased Carna Biosciences
Source text: as §1

PKCζ = biological target: T32, PKCζ (Homo sapiens, UniProt Q05513)
T32 construct: purchased Carna Biosciences
Source text: as §1

SGK2 = biological target: T33, SGK2 (Homo sapiens, UniProt Q9HBY8)
T33 construct: purchased Carna Biosciences

IKKβ = biological target: T34, IKKβ (Homo sapiens, UniProt O14920)
T34 construct: purchased Carna Biosciences
Source text: as §1

PLK2 = biological target: T35, PLK2 (Homo sapiens, UniProt Q9NYY3)
T35 construct: purchased Carna Biosciences

PKCη = biological target: T36, PKCη (Homo sapiens, UniProt P24723)
T36 construct: purchased Carna Biosciences
Source text: as §1

MELK = biological target: T37, MELK (Homo sapiens, UniProt Q14680)
T37 construct: purchased Carna Biosciences
Source text: as §1

HCK = biological target: T38, HCK (Homo sapiens, UniProt P08631)
T38 construct: purchased Carna Biosciences
Source text: as §1

PLK3 = biological target: T39, PLK3 (Homo sapiens, UniProt Q9H4B4); settings: 10 µM FINDY
T39 construct: purchased Carna Biosciences

BRK = biological target: T40, BRK (Homo sapiens, UniProt Q13882)
T40 construct: purchased Carna Biosciences
Source text: as §1

RSK4 = biological target: T41, RSK4 (Homo sapiens, UniProt Q9UK32)
T41 construct: purchased Carna Biosciences
T41 sequence (Q9UK32 whole entry): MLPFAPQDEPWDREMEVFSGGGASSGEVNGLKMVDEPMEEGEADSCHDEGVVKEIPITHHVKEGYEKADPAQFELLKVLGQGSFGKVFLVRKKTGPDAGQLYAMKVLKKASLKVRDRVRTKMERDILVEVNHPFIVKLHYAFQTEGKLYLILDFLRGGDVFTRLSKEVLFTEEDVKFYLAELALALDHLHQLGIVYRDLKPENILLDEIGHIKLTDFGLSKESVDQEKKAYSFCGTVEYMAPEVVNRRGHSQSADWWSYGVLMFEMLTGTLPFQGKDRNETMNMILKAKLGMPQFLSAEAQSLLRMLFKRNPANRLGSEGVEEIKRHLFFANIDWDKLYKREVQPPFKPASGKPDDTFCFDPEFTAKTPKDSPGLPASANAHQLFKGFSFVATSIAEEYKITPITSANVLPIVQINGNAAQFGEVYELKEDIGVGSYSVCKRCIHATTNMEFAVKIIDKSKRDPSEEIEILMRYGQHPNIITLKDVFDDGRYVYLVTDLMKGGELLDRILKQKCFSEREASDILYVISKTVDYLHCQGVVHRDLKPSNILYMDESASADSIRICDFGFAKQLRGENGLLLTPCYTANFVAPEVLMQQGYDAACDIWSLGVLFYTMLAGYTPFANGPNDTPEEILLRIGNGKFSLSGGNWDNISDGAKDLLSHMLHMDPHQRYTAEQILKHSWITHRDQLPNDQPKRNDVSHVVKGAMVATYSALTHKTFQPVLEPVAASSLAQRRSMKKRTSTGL

CDK7/CycH/MAT1 = biological target: T42, CDK7/CycH/MAT1 (Homo sapiens, UniProt P50613)
T42 construct: purchased Carna Biosciences
Source text: as §1

PKACα = biological target: T43, PKACα (Homo sapiens, UniProt P17612)
T43 construct: purchased Carna Biosciences

MAP2K2_Cascade = biological target: T44, MAP2K2_Cascade (Homo sapiens, UniProt P36507)
T44 construct: purchased Carna Biosciences
T44 sequence (P36507 whole entry): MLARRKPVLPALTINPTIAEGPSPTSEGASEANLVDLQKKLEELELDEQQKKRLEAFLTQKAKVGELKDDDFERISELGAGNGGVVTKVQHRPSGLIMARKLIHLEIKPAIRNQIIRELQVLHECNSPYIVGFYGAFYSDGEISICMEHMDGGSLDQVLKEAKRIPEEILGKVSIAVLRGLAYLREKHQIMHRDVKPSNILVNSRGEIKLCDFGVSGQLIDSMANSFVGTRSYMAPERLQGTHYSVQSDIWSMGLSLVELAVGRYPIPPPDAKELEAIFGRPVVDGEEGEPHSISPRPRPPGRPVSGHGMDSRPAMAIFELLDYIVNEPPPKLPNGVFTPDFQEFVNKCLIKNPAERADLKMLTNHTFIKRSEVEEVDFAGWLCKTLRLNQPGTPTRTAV

COc1ccc(/C=C2\SC(=S)NC2=O)cc1C#C[Si](C)(C)C [FINDY]
inhibition at 10 µM (NDR1): 3.8% | inhibition at 10 µM (MET): 12.4% | inhibition at 10 µM (PKN1): -0.9% | inhibition at 10 µM (PKCι): -4.3% | inhibition at 10 µM (WNK3): 18.9% | inhibition at 10 µM (JNK3): 4.5% | inhibition at 10 µM (EPHB1): 13.9% | inhibition at 10 µM (EPHA8): 48.8% | inhibition at 10 µM (SLK): -35% | inhibition at 10 µM (MAPKAPK2): 51.9% | inhibition at 10 µM (FGFR2): 19.7% | inhibition at 10 µM (PKCβ1): 3.5% | inhibition at 10 µM (PIM2): 67.4% | inhibition at 10 µM (AurA/TPX2): 25.1% | inhibition at 10 µM (CaMK2α): -6.9% | inhibition at 10 µM (Erk5): -4% | inhibition at 10 µM (LYNa): 4% | inhibition at 10 µM (PAK4): -20.1% | inhibition at 10 µM (NEK7): -12.3% | inhibition at 10 µM (BRSK1): 24.3% | inhibition at 10 µM (PKCθ): 6.5% | inhibition at 10 µM (AKT1): 36.6% | inhibition at 10 µM (RAF1_Cascade): 50.9% | inhibition at 10 µM (TBK1): 4% | inhibition at 10 µM (MAP2K3_Cascade): 26% | inhibition at 10 µM (COT_Cascade): 55.4% | inhibition at 10 µM (FLT4): 9.8% | inhibition at 10 µM (PKD2): 29.9% | inhibition at 10 µM (MAP3K3_Cascade): 3.3% | inhibition at 10 µM (ITK): 1.2% | inhibition at 10 µM (JAK3): 8.2% | inhibition at 10 µM (PKCζ): -6.1% | inhibition at 10 µM (SGK2): 30.9% | inhibition at 10 µM (IKKβ): -3.5% | inhibition at 10 µM (PLK2): 11.1% | inhibition at 10 µM (PKCη): -12.7% | inhibition at 10 µM (MELK): 20.6% | inhibition at 10 µM (HCK): 35.3% | inhibition at 10 µM (PLK3): 76.3% | inhibition at 10 µM (BRK): 3% | inhibition at 10 µM (RSK4): 29.6% | inhibition at 10 µM (CDK7/CycH/MAT1): 15.2% | inhibition at 10 µM (PKACα): 64.7% | inhibition at 10 µM (MAP2K2_Cascade): 38.8%
